Data published in patent publication US20240352010A1, “SUBSTITUTED 1,2,4-THIADIAZOLYL NICOTINAMIDES, SALTS OR N-OXIDES THEREOF AND THEIR USE AS HERBICIDALLY ACTIVE SUBSTANCES” (BayerAktiengesellschaft, priority 2021, published 2024).

Key:
Assay type in all cases: in vivo
Stellaria media (STEME) [1] = experiment: Herbicidal post-emergence action, STEME
Source text: (§1) Seeds of mono- and dicotyledonous weed plants were sown in plastic pots (double sowings with one species of mono- and one species of dicotyledonous weed plants per pot), in sandy loam, covered with soil and grown under controlled growth conditions. 2 to 3 weeks after sowing, the test plants were sprayed in the single-leaf stage. The compounds according to the invention, formulated in the form of wettable powders (WP) or as emulsifiable concentrates (EC), were sprayed onto the green plant parts as an aqueous suspension or as an emulsion, with the addition of 0.5% of an additive, at an application rate of 600 litres of water per hectare (converted). The test plants were placed in the greenhouse for ca. 3 weeks under optimum growth conditions, and then the effect of the preparations is assessed visually in comparison with untreated controls (herbicidal effect in percent (%): 100% effect=plants have died, 0% effect=as control plants). […]

[2] = test system: Matricaria inodora (MATIN); experiment: Herbicidal pre-emergence action, MATIN
Source text: (§2) Seeds of mono- and dicotyledonous weed plants were sown in plastic pots (double sowings with one species of mono- and one species of dicotyledonous weed plants per pot), in sandy loam, and covered with soil. The compounds according to the invention, formulated in the form of wettable powders (WP) or as emulsifiable concentrates (EC), were applied to the surface of the covering soil as an aqueous suspension or as an emulsion, with the addition of 0.5% of an additive, at an application rate of 600 litres of water per hectare (converted). Following treatment, the pots were placed in a greenhouse and kept under optimum growth conditions for the test plants. The visual grading of the damage to the test plants is carried out after ca. 3 weeks in comparison to untreated controls (herbicidal effect in percent (%): 100% effect=plants have died, 0% effect=as control plants). Seeds of mono- and dicotyledonous weed plants were sown in plastic pots (double sowings with one species of mono- and one species of dicotyledonous weed plants per pot), in sandy loam, and covered with soil. The compounds according to the invention, formulated in the form of wettable powders (WP) or as emulsifiable concentrates (EC), were applied to the surface of the covering soil as an aqueous suspension or as an emulsion, with the addition of 0.5% of an additive, at an application rate of 600 litres of water per hectare (converted). Following treatment, the pots were placed in a greenhouse and kept under optimum growth conditions for the test plants. The visual grading of the damage to the test plants is carried out after ca. 3 weeks in comparison to untreated controls (herbicidal effect in percent (%): 100% effect=plants have died, 0% effect=as control plants).

Veronica persica (VERPE) [3] = experiment: Herbicidal pre-emergence action, VERPE
Source text: as §2

Stellaria media (STEME) [4] = experiment: Herbicidal pre-emergence action, STEME
Source text: as §2

Poa annua (POAAN) = experiment: Herbicidal post-emergence action, POAAN
Source text: as §1

[5] = test system: Amaranthus retroflexus (AMARE); experiment: Herbicidal post-emergence action, AMARE
Source text: as §1

Veronica persica (VERPE) [6] = experiment: Herbicidal post-emergence action, VERPE
Source text: as §1

[7] = test system: Echinochloa crus-galli (ECHCG); experiment: Herbicidal pre-emergence action, ECHCG
Source text: as §2

[8] = test system: Matricaria inodora (MATIN); experiment: Herbicidal post-emergence action, MATIN
Source text: as §1

[9] = test system: Abutilon theophrasti (ABUTH); experiment: Herbicidal pre-emergence action, ABUTH; conditions: 1280 g/ha, visual grading after ca. 3 weeks vs untreated controls (Table A1)
Source text: Seeds of mono- and dicotyledonous weed plants were sown in plastic pots (double sowings with one species of mono- and one species of dicotyledonous weed plants per pot), in sandy loam, and covered with soil. The compounds according to the invention, formulated in the form of wettable powders (WP) or as emulsifiable concentrates (EC), were applied to the surface of the covering soil as an aqueous suspension or as an emulsion, with the addition of 0.5% of an additive, at an application rate of 600 litres of water per hectare (converted). Following treatment, the pots were placed in a greenhouse and kept under optimum growth conditions for the test plants. The visual grading of the damage to the test plants is carried out after ca. 3 weeks in comparison to untreated controls (herbicidal effect in percent (%): 100% effect=plants have died, 0% effect=as control plants).

Kochia scoparia (KCHSC) = experiment: Herbicidal pre-emergence action, KCHSC
Source text: as §2

Lolium rigidum (LOLRI) = experiment: Herbicidal post-emergence action, LOLRI
Source text: as §1

[10] = test system: Echinochloa crus-galli (ECHCG); experiment: Herbicidal post-emergence action, ECHCG
Source text: as §1

[11] = 320 g/ha, assessed visually after ca. 3 weeks vs untreated controls (Table D4)
[12] = 1280 g/ha, assessed visually after ca. 3 weeks vs untreated controls (Table B9)
[13] = 320 g/ha, visual grading after ca. 3 weeks vs untreated controls (Table C3)
[14] = 1280 g/ha, visual grading after ca. 3 weeks vs untreated controls (Table A6)
[15] = 320 g/ha, visual grading after ca. 3 weeks vs untreated controls (Table C7)
[16] = 1280 g/ha, visual grading after ca. 3 weeks vs untreated controls (Table A10)
[17] = 320 g/ha, visual grading after ca. 3 weeks vs untreated controls (Table C6)
[18] = 1280 g/ha, visual grading after ca. 3 weeks vs untreated controls (Table A9)
[19] = 320 g/ha, assessed visually after ca. 3 weeks vs untreated controls (Table D3)
[20] = 1280 g/ha, assessed visually after ca. 3 weeks vs untreated controls (Table B8)
[21] = 320 g/ha, assessed visually after ca. 3 weeks vs untreated controls (Table D6)
[22] = 1280 g/ha, assessed visually after ca. 3 weeks vs untreated controls (Table B11)
[23] = 320 g/ha, assessed visually after ca. 3 weeks vs untreated controls (Table D5)
[24] = 1280 g/ha, assessed visually after ca. 3 weeks vs untreated controls (Table B10)
[25] = 1280 g/ha, visual grading after ca. 3 weeks vs untreated controls (Table A3)
[26] = 320 g/ha, assessed visually after ca. 3 weeks vs untreated controls (Table D2)
[27] = 1280 g/ha, assessed visually after ca. 3 weeks vs untreated controls (Table B6)
[28] = 320 g/ha, visual grading after ca. 3 weeks vs untreated controls (Table C1)
[29] = 1280 g/ha, visual grading after ca. 3 weeks vs untreated controls (Table A4)
[30] = 1280 g/ha, assessed visually after ca. 3 weeks vs untreated controls (Table B5)
[31] = 1280 g/ha, assessed visually after ca. 3 weeks vs untreated controls (Table B3)

SMILES | herbicidal effect in percent, STEME (Stellaria media (STEME) [1]; [11]) | herbicidal effect in percent, STEME (Stellaria media (STEME) [1]; [12]) | herbicidal effect in percent, MATIN [2, 13] | herbicidal effect in percent, MATIN [2, 14] | herbicidal effect in percent, VERPE (Veronica persica (VERPE) [3]; [16]) | herbicidal effect in percent, STEME (Stellaria media (STEME) [4]; [17]) | herbicidal effect in percent, STEME (Stellaria media (STEME) [4]; [18]) | herbicidal effect in percent, POAAN (Poa annua (POAAN); [19]) | herbicidal effect in percent, POAAN (Poa annua (POAAN); [20]) | herbicidal effect in percent, AMARE [5, 21] | herbicidal effect in percent, AMARE [5, 22] | herbicidal effect in percent, VERPE (Veronica persica (VERPE) [6]; [23]) | herbicidal effect in percent, VERPE (Veronica persica (VERPE) [6]; [24]) | herbicidal effect in percent, ECHCG [7, 25] | herbicidal effect in percent, MATIN [8, 26] | herbicidal effect in percent, MATIN [8, 27] | herbicidal effect in percent, ABUTH [9] | herbicidal effect in percent, KCHSC (Kochia scoparia (KCHSC); [29]) | herbicidal effect in percent, LOLRI (Lolium rigidum (LOLRI); [30]) | herbicidal effect in percent, ECHCG [10, 31] | other results
O=C(Nc1ncns1)c1c(C2CC2)ccnc1Cl [Example I-003, 2-chloro-4-cyclopropyl-N-(1,2,4-thiadiazol-5-yl)pyridine-3-carboxamide] | 100% | 100% | 100% | 100% | 90% | 100% | 100% | 90% | 100% | 100% | 100% | 90% | 100% | 90% | 90% | 100% | 90% | 100% | 90% | 90% | herbicidal effect in percent, VERPE (Veronica persica (VERPE) [3]; [15]): 90%; herbicidal effect in percent, KCHSC (Kochia scoparia (KCHSC); [28]): 90%
O=C(Nc1ncns1)c1c(C2CC2)ccnc1F [Example I-005] | 100% | 100% | 100% | 100% | 100% | 100% | 100% | 100% | 100% | 100% | 100% | 100% | 100% | 90% | 100% | 100% | 90% | 100% | 100% | 90% | herbicidal effect in percent, VERPE (Veronica persica (VERPE) [3]; [15]): 90%; herbicidal effect in percent, ECHCG ([7]; 320 g/ha, visual grading after ca. 3 weeks vs untreated controls (Table C9)): 90%; herbicidal effect in percent, KCHSC (Kochia scoparia (KCHSC); [28]): 100%; herbicidal effect in percent, LOLRI (Lolium rigidum (LOLRI); 320 g/ha, assessed visually after ca. 3 weeks vs untreated controls (Table D9)): 100%
O=C(Nc1nc(Cl)ns1)c1c(C2CC2)ccnc1Cl [Example I-013] | 90% | 90% | 90% | 100% | 90% | 90% | 100% | 90% | 90% | 90% | 90% | 90% | 90% | 90% | 90% | 90% | 90% | 90% | 90% | 90% | herbicidal effect in percent, ECHCG ([10]; 320 g/ha, assessed visually after ca. 3 weeks vs untreated controls (Table D7)): 90%
